We go through one compound from the NIST ThermoML archive (doi:10.1021/je400218d).

± gives the expanded uncertainty stated by the source.

For the data set the following is noted: 298.15 K; 101.33 kPa; Crystal; Pycnometric method.

`CC1=C(C(=O)O)N2C(=O)[C@@H](NC(=O)[C@H](N)C3=CCC=CC3)[C@H]2SC1` [Cefradin]: the molar volume is 0.000268 ± 1.6e-05 m3/mol.
